Assay results reported in patent US7030126B2, “Use of polyamine analogs for amyotrophic lateral sclerosis” (ALS Therapy Development Foundation, Inc., priority 2001, dated 2006).
Read-outs that look alike come from different tables or passages of the source.

Experiments:
SOD1 G93A mice [1] = experiment: Ongoing IP injection study of DFMO in SOD1 G93A mice; type: in vivo, mouse; conditions: 3200 mg/kg
From the text: Studies are currently underway to analyze polyamines in male vs. female mSOD1 mice and wild-type mice. While positive effects are seen in male mice, the effect is less reliable at current doses. Differences in polyamine synthesis and regulation exist between the sexes and may account for the different observed effects. […] Higher plasma concentration of DFMO can be achieved by systemic delivery as opposed to oral delivery.

SOD1 G93A mice [2] = experiment: Discontinuous dosing of DFMO in SOD-1 (G93A) mouse model of ALS: survival and neurological score; type: in vivo
From the text: (§1) Survival in the mouse is copy dependent.
(§2) Controls animals were given water as vehicle.
Results are shown in FIGS. 2 and 3 and described below.

SOD1 G93A mice [3] = experiment: Continuous dosing of DFMO in SOD-1 (G93A) mouse model of ALS: survival and neurological score; type: in vivo
Protocol: as §1, §2
During this study, DFMO was delivered chronically at a dose of 3200 mg/Kg/day in drinking water […] without any drug holiday until death according to the methods described in Example 1. Results are shown in FIGS. 4–9 and described below.

SOD1 G93A mice [4] = system: SOD1 G93A mice
From the text: (vi) Neurological Scoring: Neurological score of each limb was monitored and recorded according to a defined 4-point scale defined below: […]

[5] = system: cellular concentrations of putrescine, spermidine and spermine; conditions: cited from earlier work
[6] = system: patients with advanced non-small cell lung cancer; conditions: Phase I; cited from earlier work
SOD1 G93A mice [7] = experiment: DENSPM in SOD-1 (G93A) mouse model of ALS: survival and neurological score; type: in vivo; conditions: female mice
From the text: as §1
Results are shown in FIGS. 12 and 13 and described below.

[8] = 24 mg/kg/day IP twice daily till death, FIG. 12

With `NCCCC(N)(C(=O)O)C(F)F` (racemic) [DFMO, 2-(Difuoromethyl)-DL-ornithine] the “trend in male mice” value (SOD1 G93A mice [1]) was “positive male trend”, the onset of disease (SOD1 G93A mice [2]; 3200 mg/Kg/day in drinking water, 21 days on, 7 day drug holiday) was “delays the onset of disease” and the survival (SOD1 G93A mice [2]; 3200 mg/Kg/day in drinking water, 21 days on, 7 day drug holiday, FIG. 2) was “extends the survival”. The “neurological score analysis, effect” value (SOD1 G93A mice [2]; combined male and female results, discontinuous delivery) was “No effect”, the “neurological score analysis, effect” value (SOD1 G93A mice [2]; female mice, during drug delivery period, discontinuous delivery, FIG. 3) was “protective” and the “deaths of animals in the treatment group that occurred during the drug holiday or a few days immediately succeeding the holiday” value (SOD1 G93A mice [2]; female mice, 3200 mg/Kg/day in drinking water, 21 days on, 7 day drug holiday, FIG. 2) was 70%. The total female effect (SOD1 G93A mice [2]; female mice, discontinuous delivery, FIG. 3) was 3.5%, the “neurological score analysis, effect” value (SOD1 G93A mice [2]; male mice, discontinuous delivery) was “No effect” and the onset of disease (SOD1 G93A mice [3]; 3200 mg/Kg/day in drinking water, no drug holiday) was “delays the onset of disease”. The “life span / survival” value (SOD1 G93A mice [3]; 3200 mg/Kg/day in drinking water, no drug holiday, FIGS. 4, 6 and 8) was “extended the life span”, the “neurological score analysis, effect” value (SOD1 G93A mice [3]; combined male and female, continuous delivery, FIG. 5) was “protective” and the effect (SOD1 G93A mice [3]; female mice, continuous delivery) was 11.48%. The “neurological score analysis, effect” value (SOD1 G93A mice [3]; female mice, continuous delivery, FIG. 9) was “protective”, the total combined effect (SOD1 G93A mice [3]; male and female combined, continuous delivery, Cox proportional hazard, litter effect as frailty term, p=0.02) was 9.69% and the effect (SOD1 G93A mice [3]; male mice, continuous delivery) was 8.21%. For the same compound, the “neurological score analysis, effect” value (SOD1 G93A mice [3]; male mice, continuous delivery, FIG. 7) was “protective”.
With `NC(=O)NO` [hydroxyurea] the “onset of ALS disease” value (SOD1 G93A mice [4]; 250 mg/Kg/day IP once daily, day 50 to day 110) was “delays the onset of ALS disease”, the “life span / survival” value (SOD1 G93A mice [4]; female mice, 250 mg/Kg/day IP once daily, day 50 to day 110, FIG. 10) was “extended the life span” and the “neurological score analysis, effect” value (SOD1 G93A mice [4]; female mice, 250 mg/Kg/day IP, FIG. 11) was “protective”.
In the case of `CCNCCCNCCCNCCCNCC` [DENSPM, N(1),N(11)-diethylnorspermine], the “cellular concentrations of putrescine, spermidine and spermine” value [5] is listed as “reduce”, the toxicity in patients [6] is listed as “minimal toxicity” and the onset of disease (SOD1 G93A mice [7]; [8]) is listed as “delays the onset of disease”. The survival (SOD1 G93A mice [7]; [8]) was “extends the survival” and the “neurological score analysis, effect” value (SOD1 G93A mice [7]; 24 mg/kg/day IP twice daily, FIG. 13) was “protective”.
